Source: US20230159489A1, “PHD INHIBITOR COMPOUNDS, COMPOSITIONS, AND USE” (Akebia Therapeutics, Inc., priority 2020, published 2023)
Where a name gives a salt, the structure may show the parent alone.

Key:
[1] = target: T1, full-length human PHD1 (Homo sapiens, UniProt Q96KS0); assay: TR-FRET assay, enzymatic IC50 against PHD1; assay type: biochemical; as to IC50: 15 nM PHD1
T1 construct: FLAG (N); purchased Active Motif 81064; host or cells: baculovirus expression system
Source text: PHD1 was expressed in a baculovirus expression system as the full-length protein (NCBI accession number NP_542770.2) with an N-terminal FLAG tag (molecular weight 44.9 kDa).

[2] = target: full-length human PHD2 (Homo sapiens, UniProt Q9GZT9); assay: TR-FRET assay, enzymatic IC50 against PHD2
Chain of full-length human PHD2 (Q9GZT9 whole entry): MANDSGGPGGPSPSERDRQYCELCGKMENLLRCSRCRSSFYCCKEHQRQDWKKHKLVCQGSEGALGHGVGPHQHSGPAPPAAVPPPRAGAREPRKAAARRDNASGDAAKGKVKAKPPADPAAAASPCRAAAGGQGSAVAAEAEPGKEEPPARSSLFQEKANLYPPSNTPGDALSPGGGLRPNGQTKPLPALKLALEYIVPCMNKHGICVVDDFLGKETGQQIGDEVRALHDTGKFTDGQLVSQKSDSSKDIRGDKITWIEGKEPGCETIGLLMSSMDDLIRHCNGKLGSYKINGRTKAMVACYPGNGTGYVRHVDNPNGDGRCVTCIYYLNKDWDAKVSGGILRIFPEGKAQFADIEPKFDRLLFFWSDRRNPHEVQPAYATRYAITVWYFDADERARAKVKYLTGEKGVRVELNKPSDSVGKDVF
Source text: Time-resolved fluorescence resonance energy transfer (TR-FRET) assay was utilized to determine the enzymatic half maximal inhibitory concentration (IC50) value of PHD inhibitors against the full-length human prolyl-4-hydroxylase domain (PHD) enzymes, PHD1, PHD2, and PHD3. The TR-FRET assay was developed based on the specific binding of hydroxylated HIF-1α peptide with the complex formed by VHL, EloB and EloC (VBC), to generate a fluorescent signal. Terbium (Tb)-Donor (monoclonal antibody anti-6His-Tb-cryptate Gold) and D2-acceptor (streptavidin [SA]-D2) of TR-FRET are linked to the VBC complex and to HIF-1α peptide, respectively. The VBC complex binds specifically to the HIF-1α peptide when it is hydroxylated, allowing energy transfer from TR-FRET donor to acceptor (FIG. 1). […] The plates were incubated for 30 minutes at room temperature without rotation. […] TR-FRET assays were performed in triplicate at each concentration of compound and the assays were repeated independently three times.

T1 sequence (Q96KS0 whole entry): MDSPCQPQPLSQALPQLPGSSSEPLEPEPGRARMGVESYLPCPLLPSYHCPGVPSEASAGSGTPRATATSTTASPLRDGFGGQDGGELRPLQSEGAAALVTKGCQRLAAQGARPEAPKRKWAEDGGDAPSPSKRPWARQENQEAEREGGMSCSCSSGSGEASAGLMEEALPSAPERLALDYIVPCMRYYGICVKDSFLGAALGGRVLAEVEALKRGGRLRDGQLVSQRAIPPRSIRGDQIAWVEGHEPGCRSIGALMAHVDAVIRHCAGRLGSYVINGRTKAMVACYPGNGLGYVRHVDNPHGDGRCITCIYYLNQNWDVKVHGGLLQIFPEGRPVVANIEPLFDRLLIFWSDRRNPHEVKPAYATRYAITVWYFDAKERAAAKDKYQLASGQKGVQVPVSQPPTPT

Row | Structure (SMILES) | Km ([1]; read-out: Km of 2-OG for PHD1) [µM] | IC50 [2] [nM] | IC50 [1] [nM]
1 | O=C(O)CCC(=O)C(=O)O [Compound 2-OG, 2-oxoglutarate, reference compound] | 0.0127 | – | –
2 | Cc1nn(-c2ccc(P(C)(C)=O)cn2)c(O)c1-c1ccc(C#N)cc1 [Compound 14, 4-(1-(5-(dimethylphosphoryl)pyridin-2-yl)-5-hydroxy-3-methyl-1H-pyrazol-4-yl)benzonitrile] | – | < 100 | < 100
3 | Cc1nn(-c2ccc([S@@](C)(=N)=O)cn2)c(O)c1-c1ccc(C#N)cc1 [Compound 16, (S)-4-(5-hydroxy-3-methyl-1-(5-(S-methylsulfonimidoyl)pyridin-2-yl)-1H-pyrazol-4-yl)benzonitrile] | – | < 100 | < 100
4 | Cc1nn(-c2ccc([S@](C)(=N)=O)cn2)c(O)c1-c1ccc(C#N)cc1 [Compound 17, (R)-4-(5-hydroxy-3-methyl-1-(5-(S-methylsulfonimidoyl)pyridin-2-yl)-1H-pyrazol-4-yl)benzonitrile] | – | < 100 | < 100
5 | Cc1nn(-c2ccc(S(C)(=N)=O)cn2)c(O)c1-c1ccc(Cl)cc1 (centres unmarked) [Compound 18, (6-(4-(4-chlorophenyl)-5-hydroxy-3-methyl-1H-pyrazol-1-yl)pyridin-3-yl)(imino)(methyl)-λ^6-sulfanone] | – | < 100 | < 100
6 | Cc1nn(-c2ccc(S(=N)(=O)C(C)C)cn2)c(O)c1-c1ccc(C#N)cc1 (centres unmarked) [Compound 19, 4-(5-hydroxy-3-methyl-1-(5-(propan-2-ylsulfonimidoyl)pyridin-2-yl)-1H-pyrazol-4-yl)benzonitrile] | – | < 100 | < 100
7 | Cc1nn(-c2ccc(S(=N)(=O)c3ccccc3)cn2)c(O)c1-c1ccc(C#N)cc1 (centres unmarked) [Compound 20, 4-(5-hydroxy-3-methyl-1-(5-(phenylsulfonimidoyl)pyridin-2-yl)-1H-pyrazol-4-yl)benzonitrile] | – | < 100 | < 100
8 | CCS(=N)(=O)c1ccc(-n2nc(C)c(-c3ccc(C#N)cc3)c2O)nc1 (centres unmarked) [Compound 21, 4-(5-hydroxy-3-methyl-1-(5-(S-ethylsulfonimidoyl)pyridin-2-yl)-1H-pyrazol-4-yl)benzonitrile] | – | < 100 | < 100
9 | Cc1nn(-c2ccc([S@+](C)[O-])cn2)c(O)c1-c1ccc(C#N)cc1 [Compound 22, (S)-4-(5-hydroxy-3-methyl-1-(5-(methylsulfinyl)pyridin-2-yl)-1H-pyrazol-4-yl)benzonitrile] | – | < 100 | < 100
10 | Cc1nn(-c2ccc([S@@+](C)[O-])cn2)c(O)c1-c1ccc(C#N)cc1 [Compound 23, (R)-4-(5-hydroxy-3-methyl-1-(5-(methylsulfinyl)pyridin-2-yl)-1H-pyrazol-4-yl)benzonitrile] | – | < 100 | < 100
11 | Cc1nn(-c2ccc(S(=N)(N)=O)cn2)c(O)c1-c1ccc(C#N)cc1 (centres unmarked) [Compound 24, 6-(4-(4-cyanophenyl)-5-hydroxy-3-methyl-TH-pyrazol-1-yl)pyridine-3-sulfonimidamide] | – | < 100 | < 100
12 | Cc1nn(-c2ccc(S(=N)(=O)N(C)C)cn2)c(O)c1-c1ccc(C#N)cc1 (centres unmarked) [Compound 25, 6-(4-(4-cyanophenyl)-5-hydroxy-3-methyl-1H-pyrazol-1-yl)-N,N-dimethylpyridine-3-sulfonimidamide] | – | < 100 | < 100
13 | CNS(=N)(=O)c1ccc(-n2nc(C)c(-c3ccc(C#N)cc3)c2O)nc1 (centres unmarked) [Compound 26, 6-(4-(4-cyanophenyl)-5-hydroxy-3-methyl-1H-pyrazol-1-yl)-N-methylpyridine-3-sulfonimidamide] | – | < 100 | < 100
14 | Cc1nn(-c2ccc(C(=O)NS(C)(=O)=O)cn2)c(O)c1-c1ccc(Cl)cc1 [Compound 28, 6-(4-(4-chlorophenyl)-5-hydroxy-3-methyl-1H-pyrazol-1-yl)-N-(methylsulfonyl)nicotinamide] | – | 100 to 1000 | < 100
15 | CC(=O)NS(=O)(=O)c1ccc(-n2nc(C)c(-c3ccc(C#N)cc3)c2O)nc1 [Compound 29, N-((6-(4-(4-cyanophenyl)-5-hydroxy-3-methyl-1H-pyrazol-1-yl)pyridin-3-yl)sulfonyl)acetamide] | – | < 100 | < 100
16 | CC(=O)NS(=O)(=O)c1ccc(-n2nc(C)c(-c3ccc(Cl)cc3)c2O)nc1 [Compound 30, N-((6-(4-(4-chlorophenyl)-5-hydroxy-3-methyl-1H-pyrazol-1-yl)pyridin-3-yl)sulfonyl)acetamide] | – | < 100 | < 100
17 | Cc1nn(-c2ccc(NC(=O)N3CCOCC3)cn2)c(O)c1-c1ccc(C#N)cc1 [Compound 31, N-(6-(4-(4-cyanophenyl)-5-hydroxy-3-methyl-1H-pyrazol-1-yl)pyridin-3-yl)morpholine-4-carboxamide] | – | 100 to 1000 | < 100

Row | Structure (SMILES) | Km ([1]; read-out: Km of 2-OG for PHD1) [µM] | IC50 [2] [nM] | IC50 [1] [nM]
18 | Cc1nn(-c2ccc(NC(=O)N3CCNCC3)cn2)c(O)c1-c1ccc(C#N)cc1 [Compound 32, N-(6-(4-(4-cyanophenyl)-5-hydroxy-3-methyl-1H-pyrazol-1-yl)pyridin-3-yl)piperazine-1-carboxamide hydrochloride] | – | 100 to 1000 | 100 to 1000
19 | Cc1nn(-c2ccc(S(=N)(=O)C3CC3)cn2)c(O)c1-c1ccc(C#N)cc1 (centres unmarked) [Compound 33, 4-(1-(5-(cyclopropanesulfonimidoyl)pyridin-2-yl)-5-hydroxy-3-methyl-1H-pyrazol-4-yl)benzonitrile] | – | < 100 | < 100
20 | Cc1cc(-n2nc(C)c(-c3ccc(C#N)cc3)c2O)ncc1N1CCCC1=O [Compound 37, 4-(5-hydroxy-3-methyl-1-(4-methyl-5-(2-oxopyrrolidin-1-yl)pyridin-2-yl)-1H-pyrazol-4-yl)benzonitrile] | – | < 100 | < 100
21 | Cc1cc(-n2nc(C)c(-c3ccc(C#N)cc3)c2O)ncc1S(N)(=O)=O [Compound 38, 6-(4-(4-cyanophenyl)-5-hydroxy-3-methyl-1H-pyrazol-1-yl)-4-methylpyridine-3-sulfonamide] | – | < 100 | < 100
22 | Cc1cc(-n2nc(C)c(-c3ccc(C#N)cc3)c2O)ncc1NS(C)(=O)=O [Compound 39, N-(6-(4-(4-cyanophenyl)-5-hydroxy-3-methyl-1H-pyrazol-1-yl)-4-methylpyridin-3-yl)methanesulfonamide] | – | < 100 | < 100
23 | Cc1cc(-n2nc(C)c(-c3ccc(C#N)cc3)c2O)ncc1S(C)(=N)=O (centres unmarked) [Compound 40, 4-(5-hydroxy-3-methyl-1-(4-methyl-5-(S-methylsulfonimidoyl)pyridin-2-yl)-1H-pyrazol-4-yl)benzonitrile] | – | < 100 | < 100
24 | Cc1nn(-c2ccc([S@@](=N)(=O)C(C)C)cn2)c(O)c1-c1ccc(C#N)cc1 [Compound 41, (S)-4-(5-hydroxy-3-methyl-1-(5-(S-isopropylsulfonimidoyl)pyridin-2-yl)-1H-pyrazol-4-yl)benzonitrile] | – | < 100 | < 100
25 | Cc1nn(-c2ccc([S@](=N)(=O)C(C)C)cn2)c(O)c1-c1ccc(C#N)cc1 [Compound 42, (R)-4-(5-hydroxy-3-methyl-1-(5-(S-isopropylsulfonimidoyl)pyridin-2-yl)-1H-pyrazol-4-yl)benzonitrile] | – | < 100 | < 100
26 | Cc1nn(-c2ccc(C3CN(S(C)(=O)=O)C3)cn2)c(O)c1-c1ccc(C#N)cc1 [Compound 43, 4-(5-hydroxy-3-methyl-1-(5-(1-(methylsulfonyl)azetidin-3-yl)pyridin-2-yl)-1H-pyrazol-4-yl)benzonitrile] | – | < 100 | < 100
27 | Cc1nc(-n2nc(C)c(-c3ccc(C#N)cc3)c2O)ccc1S(C)(=O)=O [Compound 45, 4-(5-hydroxy-3-methyl-1-(6-methyl-5-(methylsulfonyl)pyridin-2-yl)-1H-pyrazol-4-yl)benzonitrile] | – | 1000 to 10000 | 1000 to 10000
28 | Cc1cc(-n2nc(C)c(-c3ccc(C#N)cc3)c2O)ncc1S(C)(=O)=O [Compound 46, 4-(5-hydroxy-3-methyl-1-(4-methyl-5-(methylsulfonyl)pyridin-2-yl)-1H-pyrazol-4-yl)benzonitrile] | – | < 100 | < 100
29 | Cc1nn(-c2ccc(CC(=O)O)cn2)c(O)c1-c1ccc(C#N)cc1 [Compound 47, 2-(6-(4-(4-cyanophenyl)-5-hydroxy-3-methyl-1H-pyrazol-1-yl)pyridin-3-yl)acetic acid] | – | < 100 | < 100
30 | Cc1cc(-c2c(C)nn(-c3ccc(S(C)(=O)=O)cn3)c2O)ccc1O [Compound 48, 4-(4-hydroxy-3-methylphenyl)-3-methyl-1-(5-(methylsulfonyl)pyridin-2-yl)-1H-pyrazol-5-ol] | – | 100 to 1000 | 100 to 1000
31 | COc1ccc(-c2c(C)nn(-c3ccc(S(C)(=O)=O)cn3)c2O)cc1C [Compound 49, 4-(4-methoxy-3-methylphenyl)-3-methyl-1-(5-(methylsulfonyl)pyridin-2-yl)-1H-pyrazol-5-ol] | – | 100 to 1000 | 100 to 1000
32 | Cc1nn(-c2ccc(-c3nn[nH]n3)cn2)c(O)c1-c1ccc(C#N)cc1 [Compound 50, 4-(1-(5-(2H-tetrazol-5-yl)pyridin-2-yl)-5-hydroxy-3-methyl-1H-pyrazol-4-yl)benzonitrile] | – | < 100 | < 100
33 | Cc1nn(-c2ccc(-c3cn(C)nn3)cn2)c(O)c1-c1ccc(C#N)cc1 [Compound 54, 4-(5-hydroxy-3-methyl-1-(5-(1-methyl-1H-1,2,3-triazol-4-yl)pyridin-2-yl)-1H-pyrazol-4-yl)benzonitrile] | – | – | < 100
34 | Cc1cc(-n2nc(C)c(-c3ccc(C#N)cc3)c2O)ncc1S(=O)(=O)N1CCCC1 [Compound 72, 4-(5-hydroxy-3-methyl-1-(4-methyl-5-(pyrrolidin-1-ylsulfonyl)pyridin-2-yl)-1H-pyrazol-4-yl)benzonitrile] | – | – | < 100
